Earlier results on 1 compound are cited in patent publication US9045435B2, “Quinazoline compounds as sodium channel blockers” (Purdue Pharma, L.P., priority 2010, dated 2015).

Structures are written as SMILES. pIC50: −log10 of the molar value.

Some targets named below: Nav1.6 (Homo sapiens, UniProt Q9UQD0); Nav1.8 (Homo sapiens, UniProt Q9Y5Y9); Nav1.2 (Homo sapiens, UniProt Q99250); Nav1.9 (Homo sapiens, UniProt Q9UI33); Nav1.1 (Homo sapiens, UniProt P35498); Nav1.3 (Homo sapiens, UniProt Q9NY46).
Common to all, as to conditions: read-out: TTX IC50; cited from earlier work

Chain of Nav1.9 (Q9UI33 whole entry, looked up): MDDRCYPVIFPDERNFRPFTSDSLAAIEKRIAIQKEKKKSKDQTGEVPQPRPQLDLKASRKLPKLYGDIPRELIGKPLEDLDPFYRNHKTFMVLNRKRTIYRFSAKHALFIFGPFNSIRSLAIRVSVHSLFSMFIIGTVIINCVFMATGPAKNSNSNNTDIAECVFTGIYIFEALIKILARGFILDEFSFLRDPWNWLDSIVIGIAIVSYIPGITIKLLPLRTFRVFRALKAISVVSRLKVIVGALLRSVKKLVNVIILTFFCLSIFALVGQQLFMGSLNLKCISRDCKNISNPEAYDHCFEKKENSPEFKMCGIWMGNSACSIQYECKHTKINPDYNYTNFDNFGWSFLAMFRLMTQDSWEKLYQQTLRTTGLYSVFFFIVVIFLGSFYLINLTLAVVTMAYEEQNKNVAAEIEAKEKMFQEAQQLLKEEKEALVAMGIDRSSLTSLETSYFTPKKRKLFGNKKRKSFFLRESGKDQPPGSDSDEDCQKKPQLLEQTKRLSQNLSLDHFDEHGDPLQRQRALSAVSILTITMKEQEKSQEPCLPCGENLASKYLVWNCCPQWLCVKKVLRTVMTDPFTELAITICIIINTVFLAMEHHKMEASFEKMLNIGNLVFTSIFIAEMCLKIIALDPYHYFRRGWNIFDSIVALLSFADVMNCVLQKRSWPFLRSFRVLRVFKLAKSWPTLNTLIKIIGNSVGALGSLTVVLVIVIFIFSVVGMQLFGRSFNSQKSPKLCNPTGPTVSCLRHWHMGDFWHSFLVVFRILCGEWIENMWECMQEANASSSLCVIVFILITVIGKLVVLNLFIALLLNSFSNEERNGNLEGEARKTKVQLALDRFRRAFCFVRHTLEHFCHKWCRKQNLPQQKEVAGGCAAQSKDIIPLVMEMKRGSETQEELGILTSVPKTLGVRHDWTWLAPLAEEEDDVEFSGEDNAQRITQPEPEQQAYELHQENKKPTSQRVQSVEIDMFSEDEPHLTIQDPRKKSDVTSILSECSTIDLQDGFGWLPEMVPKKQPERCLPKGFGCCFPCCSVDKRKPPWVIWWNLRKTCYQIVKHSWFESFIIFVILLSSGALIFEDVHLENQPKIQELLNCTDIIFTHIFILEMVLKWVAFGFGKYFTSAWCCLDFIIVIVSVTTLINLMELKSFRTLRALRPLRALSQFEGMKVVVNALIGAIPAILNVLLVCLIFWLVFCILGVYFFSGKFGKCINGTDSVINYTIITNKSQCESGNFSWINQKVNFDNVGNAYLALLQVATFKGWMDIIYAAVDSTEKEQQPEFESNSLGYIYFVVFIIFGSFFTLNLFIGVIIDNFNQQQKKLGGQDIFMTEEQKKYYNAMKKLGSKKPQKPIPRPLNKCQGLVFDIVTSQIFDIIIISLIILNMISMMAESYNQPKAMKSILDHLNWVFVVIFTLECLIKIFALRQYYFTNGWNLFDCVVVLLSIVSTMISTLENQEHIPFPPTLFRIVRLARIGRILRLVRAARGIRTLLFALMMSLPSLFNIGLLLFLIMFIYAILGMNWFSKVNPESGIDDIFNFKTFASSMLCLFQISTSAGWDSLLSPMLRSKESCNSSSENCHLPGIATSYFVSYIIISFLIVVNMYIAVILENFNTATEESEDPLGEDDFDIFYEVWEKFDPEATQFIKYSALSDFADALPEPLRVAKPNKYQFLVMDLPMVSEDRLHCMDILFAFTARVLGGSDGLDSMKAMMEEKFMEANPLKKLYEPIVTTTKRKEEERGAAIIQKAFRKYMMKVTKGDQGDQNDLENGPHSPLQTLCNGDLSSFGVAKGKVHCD
Chain of Nav1.2 (Q99250 whole entry, looked up): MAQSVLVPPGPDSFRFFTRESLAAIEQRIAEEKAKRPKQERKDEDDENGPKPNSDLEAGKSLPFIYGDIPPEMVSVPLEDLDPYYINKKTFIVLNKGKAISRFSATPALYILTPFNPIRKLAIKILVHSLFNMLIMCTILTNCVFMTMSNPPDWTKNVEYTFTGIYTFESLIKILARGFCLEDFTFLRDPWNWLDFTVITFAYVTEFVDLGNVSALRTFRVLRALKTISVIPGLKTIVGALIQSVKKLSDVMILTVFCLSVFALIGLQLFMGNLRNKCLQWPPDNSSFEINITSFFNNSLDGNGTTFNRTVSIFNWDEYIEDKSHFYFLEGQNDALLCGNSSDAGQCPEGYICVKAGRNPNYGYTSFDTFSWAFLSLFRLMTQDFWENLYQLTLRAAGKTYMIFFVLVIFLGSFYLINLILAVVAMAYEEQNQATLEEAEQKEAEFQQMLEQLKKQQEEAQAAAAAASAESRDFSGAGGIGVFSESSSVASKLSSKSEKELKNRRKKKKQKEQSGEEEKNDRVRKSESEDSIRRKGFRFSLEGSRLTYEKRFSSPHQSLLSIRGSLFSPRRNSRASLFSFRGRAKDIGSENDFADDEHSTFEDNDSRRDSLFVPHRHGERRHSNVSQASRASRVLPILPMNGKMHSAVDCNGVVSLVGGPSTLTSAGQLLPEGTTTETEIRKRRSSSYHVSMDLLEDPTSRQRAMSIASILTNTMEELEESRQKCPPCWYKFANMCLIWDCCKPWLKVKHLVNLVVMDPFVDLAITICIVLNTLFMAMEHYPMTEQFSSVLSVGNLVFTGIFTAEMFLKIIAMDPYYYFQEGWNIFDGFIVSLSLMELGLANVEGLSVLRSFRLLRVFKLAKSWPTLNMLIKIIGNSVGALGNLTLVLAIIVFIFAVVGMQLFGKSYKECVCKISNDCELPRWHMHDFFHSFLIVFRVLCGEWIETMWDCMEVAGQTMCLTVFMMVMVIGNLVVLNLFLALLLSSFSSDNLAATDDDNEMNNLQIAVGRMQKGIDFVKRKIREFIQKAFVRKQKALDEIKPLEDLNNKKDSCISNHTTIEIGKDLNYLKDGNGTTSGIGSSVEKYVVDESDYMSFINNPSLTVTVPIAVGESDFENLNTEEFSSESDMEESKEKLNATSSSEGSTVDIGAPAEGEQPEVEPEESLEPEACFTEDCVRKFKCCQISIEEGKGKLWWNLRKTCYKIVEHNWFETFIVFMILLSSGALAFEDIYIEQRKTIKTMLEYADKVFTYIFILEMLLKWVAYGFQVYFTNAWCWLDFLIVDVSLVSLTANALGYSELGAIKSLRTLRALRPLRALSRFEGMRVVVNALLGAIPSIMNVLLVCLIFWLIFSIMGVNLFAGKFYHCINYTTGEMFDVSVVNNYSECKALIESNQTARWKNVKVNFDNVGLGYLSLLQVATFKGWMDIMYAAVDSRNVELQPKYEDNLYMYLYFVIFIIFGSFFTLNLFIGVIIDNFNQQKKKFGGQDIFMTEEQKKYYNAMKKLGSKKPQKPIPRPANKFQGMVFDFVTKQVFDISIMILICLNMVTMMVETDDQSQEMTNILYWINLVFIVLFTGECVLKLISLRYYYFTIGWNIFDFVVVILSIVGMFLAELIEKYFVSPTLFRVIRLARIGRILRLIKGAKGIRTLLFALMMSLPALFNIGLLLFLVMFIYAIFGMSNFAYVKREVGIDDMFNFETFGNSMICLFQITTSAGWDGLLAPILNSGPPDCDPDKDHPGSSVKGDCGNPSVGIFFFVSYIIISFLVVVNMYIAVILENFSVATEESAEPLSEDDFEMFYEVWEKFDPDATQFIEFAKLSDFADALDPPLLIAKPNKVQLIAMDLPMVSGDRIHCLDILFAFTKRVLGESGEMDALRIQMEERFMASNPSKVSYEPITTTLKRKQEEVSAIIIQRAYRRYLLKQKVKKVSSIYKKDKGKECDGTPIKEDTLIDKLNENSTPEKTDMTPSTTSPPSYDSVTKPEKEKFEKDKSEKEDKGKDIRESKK

In the case of `NC1=N[C@H](O)[C@H]2[C@H]3O[C@]4(O)O[C@@H]([C@@H](O)[C@@]2(N1)[C@@H]4O)[C@]3(O)CO` [TTX, tetrodotoxin], the pIC50 is 8.22 on Nav1.6; 4.30 on Nav1.8; 8.00 at Nav1.2; 6.00 on Nav1.9; 8.00 on Nav1.1; 7.82 on Nav1.3.
